Measurements reported in patent EP0970046B1, “N-HYDROXY-2-(ALKYL, ARYL, OR HETEROARYL SULFANYL, SULFINYL OR SULFONYL)-3-SUBSTITUTED ALKYL, ARYL OR HETEROARYLAMIDES AS MATRIX METALLOPROTEINASE INHIBITORS” (Wyeth Holdings Corporation, priority 1997, dated 1998).
Where two headings read alike, the source gives them in different places.

What was measured:
MMP 13 = MMP 13 (Homo sapiens, UniProt P45452); assay: MMP 13 inhibition (HTS; method not described); assay type: biochemical; details: for inhibition at 0.2 µM: read-out: MMP 13 % inhibition at 0.2 µM (HTS); for MMP 13 % inhibition at 0.2 µM (HTS) / inhibition at 0.2 µM / inhibition at 0.036 µM: HTS; for inhibition at 0.036 µM: read-out: MMP 13 % inhibition at 36 nM (HTS), 36 nM
TACE = biological target: T1, TACE (Homo sapiens, UniProt P78536); assay: Procedure for Measuring TACE Inhibition; assay type: biochemical; details: 1 µM; for inhibition at 1 µM: read-out: TACE % inhibition at 1 µM
T1 construct: purchased Immunex
T1 sequence (P78536 215-824): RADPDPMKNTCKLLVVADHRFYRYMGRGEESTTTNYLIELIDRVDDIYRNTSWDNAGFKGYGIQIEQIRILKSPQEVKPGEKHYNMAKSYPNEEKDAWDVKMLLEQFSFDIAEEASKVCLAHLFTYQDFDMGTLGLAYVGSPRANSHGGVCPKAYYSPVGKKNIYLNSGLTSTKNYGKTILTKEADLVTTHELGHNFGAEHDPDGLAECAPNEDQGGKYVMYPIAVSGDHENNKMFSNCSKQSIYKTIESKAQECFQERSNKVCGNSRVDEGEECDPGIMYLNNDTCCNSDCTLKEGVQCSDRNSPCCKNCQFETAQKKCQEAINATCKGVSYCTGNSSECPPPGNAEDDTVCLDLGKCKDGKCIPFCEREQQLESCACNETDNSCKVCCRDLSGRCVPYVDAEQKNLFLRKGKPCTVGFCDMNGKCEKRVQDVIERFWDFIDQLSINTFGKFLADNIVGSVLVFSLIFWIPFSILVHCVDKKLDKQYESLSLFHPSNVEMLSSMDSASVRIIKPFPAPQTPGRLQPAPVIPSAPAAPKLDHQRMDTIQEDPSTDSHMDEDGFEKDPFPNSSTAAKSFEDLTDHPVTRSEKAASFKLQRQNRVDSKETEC
Procedure: Using 96-well black microtiter plates, each well receives a solution composed of 10 µL TACE (Immunex, final concentration 1µg/mL), 70µL Tris buffer, pH 7.4 containing 10% glycerol (final concentration 10 mM), and 10 µL of test compound solution in DMSO (final concentration 1µM, DMSO concentration <1%) and incubated for 10 minutes at room temperature. The reaction is initiated by addition of a fluorescent peptidyl substrate (final concentration 100 µM) to each well and then shaking on a shaker for 5 sec. The reaction is read (excitation 340 nm, emission 420 nm) for 10 min. and the increase in fluorescence over time is plotted as a linear line. The slope of the line is calculated and represents the reaction rate. The linearity of the reaction rate is confirmed (r^2 >0.85). The mean (x±sem) of the control rate is calculated and compared for statistical significance (p<0.05) with drug-treated rates using Dunnett's multiple comparison test.

(1-Hydroxycarbamoyl-propane-1-sulfanyl)-propionic acid hydroxyamide [Example 122]
MMP 13 % inhibition at 0.2 µM (HTS) (MMP 13): 0%
TACE % inhibition at 1 µM (TACE; Examples 110-168): 3.1%

O=C(NO)C(Cc1cnc[nH]1)[S+]([O-])c1ccc(Br)cc1 (stereo not shown) [Example 153, 2-(4-bromo-benzenesulfinyl)-N-hydroxy-3-(3H-imidazol-4-yl)-propionamide]
inhibition at 0.2 µM (MMP 13): 12%
inhibition at 1 µM (TACE; Examples 110-168): 11.8%

(1-Hydroxycarbamoyl-propane-1-sulfinyl)-acetic acid hydroxy amide [Example 121]
MMP 13 % inhibition at 0.2 µM (HTS) (MMP 13): 0%
TACE % inhibition at 1 µM (TACE; Examples 110-168): 6.1%

O=C(NO)C(COCc1ccccc1)[S+]([O-])Cc1ccccc1Cl (stereo not shown) [Example 150, 3-Benzyloxy-N-hydroxy-2-(2-chloro-benzylsulfinyl)-propionamide]
inhibition at 0.2 µM (MMP 13): 54%
inhibition at 1 µM (TACE; Examples 110-168): 1.82%

COc1ccc(S(=O)(=O)C(C)C(=O)NO)cc1 (stereo not shown) [Example 110, N-Hydroxy-2-(4-methoxy-benzenesulfonyl)-propionamide]
inhibition at 0.2 µM (MMP 13): 75%
inhibition at 1 µM (TACE; Examples 110-168): 17.6%

CCCCCCC(C(=O)NO)[S+]([O-])c1cccc(OC)c1 (stereo not shown) [Example 163, 2-(3-Methoxybenzenesulfinyl)-octanoic acid hydroxyamide]
inhibition at 0.2 µM (MMP 13): 84%
inhibition at 1 µM (TACE; Examples 110-168): 9.52%

O=C(CCC(Sc1ccccc1C(F)(F)F)C(=O)NO)NO (stereo not shown) [Example 137, 4-Hydroxycarbamoyl-4-(2-trifluoromethyl-benzenesulfanyl)-butyric acid hydroxyamide]
MMP 13 % inhibition at 0.2 µM (HTS) (MMP 13): 83%
TACE % inhibition at 1 µM (TACE; Examples 110-168): 13.35%

O=C(CCC(Sc1ccc(Br)cc1)C(=O)NO)NO (stereo not shown) [Example 134, 4-Hydroxycarbamoyl-4-(4-bromo-benzenesulfanyl)-butyric acid hydroxyamide]
MMP 13 % inhibition at 0.2 µM (HTS) (MMP 13): 25%
TACE % inhibition at 1 µM (TACE; Examples 110-168): -9.31%

CCCCCCC(C(=O)NO)[S+]([O-])c1cccc2cccnc12 (stereo not shown) [Example 190, 2-(Quinoline-8-sulfinyl)-octanoic acid hydroxyamide]
inhibition at 0.036 µM (MMP 13): -35%
inhibition at 1 µM (TACE; Examples 169-240): 38.3%

CS(=O)(=O)c1ccc(S(=O)(=O)C(COCc2ccccc2)C(=O)NO)cc1 (stereo not shown) [Example 148, 3-Benzyloxy-N-hydroxy-2-(4-methanesulfonyl-benzenesulfonyl)-propionamide]
inhibition at 0.2 µM (MMP 13): 15%
inhibition at 1 µM (TACE; Examples 110-168): 43.5%

O=C(CCC(C(=O)NO)S(=O)(=O)c1ccc(Br)cc1)NO (stereo not shown) [Example 136, 4-Hydroxycarbamoyl-4-(4-bromo-benzenesulfonyl)-butyric acid hydroxyamide]
inhibition at 0.2 µM (MMP 13): 89%
inhibition at 1 µM (TACE; Examples 110-168): 42.7%

O=C(CCC(C(=O)NO)[S+]([O-])c1ccc(Br)cc1)NO (stereo not shown) [Example 135, 4-Hydroxycarbamoyl-4-(4-bromo-benzenesulfinyl)-butyric acid hydroxyamide]
inhibition at 0.2 µM (MMP 13): 79%

O=C(CCC(C(=O)NO)[S+]([O-])c1ccccc1C(F)(F)F)NO (stereo not shown) [Example 138, 4-Hydroxycarbamoyl-4-(2-trifluoromethyl-benzenesulfinyl)-butyric acid hydroxyamide]
inhibition at 0.2 µM (MMP 13): 20%

CCCCCCC(Sc1cc(Cl)ccc1Cl)C(=O)NO (stereo not shown) [Example 160, 2-(2,5-dichlorobenzenesulfanyl)-octanoic acid hydroxyamide]
inhibition at 0.2 µM (MMP 13): 14%

CCCCCCC(Sc1cccc(OC)c1)C(=O)NO (stereo not shown) [Example 162, 2-(3-Methoxybenzenesulfanyl)-ocranoic acid hydroxyamide]
inhibition at 0.2 µM (MMP 13): 13%

CCCCCCC(Sc1nc2ccccc2[nH]1)C(=O)NO (stereo not shown) [Example 168, 2-(2-Benzimidazol-2-ylsulfanyl)-octanoic acid hydroxyamide]
inhibition at 0.2 µM (MMP 13): 21%

CCCCCCC(Sc1nc2ccccc2s1)C(=O)NO (stereo not shown) [Example 170, 2-(2-Benzothiazol-2-ylsulfanyl)-octanoic acid hydroxyamide]
inhibition at 0.036 µM (MMP 13): 32%

CCCCCCC(C(=O)NO)S(=O)(=O)CC1NC(=O)NC1=O (stereo not shown) [Example 198, 2-(2,5-Dioxo-imidazolidin-4-ylmethylsulfonyl)-octanoic acid hydroxyamide]
inhibition at 0.036 µM (MMP 13): -39%

N=C(N)NCCCC(Sc1cccc(F)c1)C(=O)NO (stereo not shown) [Example 155, 2-(3-fluorophenylsulfanyl)-5-guanidino-pentanoic acid hydroxyamide]
inhibition at 0.2 µM (MMP 13): 31%

N=C(N)NCCCC(C(=O)NO)S(=O)(=O)c1ccccc1Br (stereo not shown) [Example 159, 2-(2-Bromosulfonyl)-5-guanidino-pentanoic acid hydroxyamide]
inhibition at 0.2 µM (MMP 13): 49%

CCCCCCCCC(C(=O)NO)[S+]([O-])c1ccc([S+](C)[O-])cc1 (stereo not shown) [Example 144, 2-(4-methanesulfinyl-benzenesulfinyl)decanoic acid hydroxamide]
inhibition at 0.2 µM (MMP 13): 38%

CCCCCCC(C(=O)NO)S(=O)(=O)c1ccc(OS(=O)(=O)c2ccccc2[N+](=O)[O-])cc1 (stereo not shown) [Example 238, 2-Nitro-benzenesulfonic acid 4-(1-hydroxycarbamoyl-heptylsulfonyl)-hydroxyamide]
inhibition at 0.036 µM (MMP 13): 22%

CCCCCCC(C(=O)NO)[S+]([O-])CC(=O)Nc1ccc2ccccc2c1 (stereo not shown) [Example 191, 2-(Naphthalen-2-ylcarbamoylmethanesulfinyl)-octanoic acid hydroxyamide]
inhibition at 0.036 µM (MMP 13): -45%

CCCCCCC(C(=O)NO)S(=O)(=O)CCc1cccc[n+]1[O-] (stereo not shown) [Example 183, 2-[2-(1-Oxy-pyridin-2-yl)-ethanesulfonyl]-octanoic acid hydroxyamide]
inhibition at 0.036 µM (MMP 13): -6%

C[S+]([O-])c1ccc([S+]([O-])C(COCc2ccccc2)C(=O)NO)cc1 (stereo not shown) [Example 147, 3-Benzyloxy-N-hydroxy-2-(4-methanesulfinyl-benzenesulfinyl)-propionamide]
inhibition at 0.2 µM (MMP 13): 73%

CCCCCCCCC(C(=O)NO)S(=O)(=O)c1ccc(S(C)(=O)=O)cc1 (stereo not shown) [Example 145, 2-(4-methanesulfonyl-benzenesulfonyl)decanoic acid hydroxamide]
inhibition at 0.2 µM (MMP 13): 45%

CCCCCCC(Sc1ccc(OS(=O)(=O)c2ccccc2)cc1)C(=O)NO (stereo not shown) [Example 232, Benzenesulfonic acid 4-(1-hydroxycarbamoyl-heptylsulfanyl)-phenyl ester]
inhibition at 0.036 µM (MMP 13): 30%

CCCCCCCCC(C(=O)NO)[S+]([O-])c1cccc(OC)c1 (stereo not shown) [Example 141, 2-(3-Methoxy-benzenesulfinyl)decanoic acid hydroxamide]
inhibition at 0.2 µM (MMP 13): 32%

CCCCCCC(Sc1ccc(OCc2ccccc2)cc1)C(=O)NO (stereo not shown) [Example 199, 2-(4-Benzyloxy-phenylsulfanyl)-octanoic acid hydroxyamide]
inhibition at 0.036 µM (MMP 13): -10%

CCCCCCC(C(=O)NO)S(=O)(=O)c1[nH]c2ccccc2[n+]1[O-] (stereo not shown) [Example 181, 2-(3-Oxy-1H-benzimidazole-2-sulfonyl)-octanoic acid hydroxyamide]
inhibition at 0.036 µM (MMP 13): 6%
inhibition at 360 µM (MMP 13; read-out: MMP 13 % inhibition at 0.36 mM (HTS)): 35%
inhibition at 3600 µM (MMP 13; read-out: MMP 13 % inhibition at 3.6 mM (HTS)): 62%

N=C(N)NCCCC(C(=O)NO)[S+]([O-])c1ccccc1Br (stereo not shown) [Example 158, 2-(2-Bromosulfinyl)-5-guanidino-pentanoic acid hydroxyamide]
inhibition at 0.2 µM (MMP 13): 33%

CCCCCCC(SCCc1ccccn1)C(=O)NO (stereo not shown) [Example 173, 2-(2-Pyridin-2-yl-ethylsulfanyl)-octanoic acid hydroxyamide]
inhibition at 0.036 µM (MMP 13): 18%

CC(=O)Nc1ccc([S+]([O-])C(Cc2ccccc2)C(=O)NO)cc1 (stereo not shown) [Example 129, 2-(4-Acetylamino-benzenesulfinyl)-N-hydroxy-3-phenyl-propionamide]
inhibition at 0.2 µM (MMP 13): 90%

N=C(N)NCCCC(Sc1ccccc1Br)C(=O)NO (stereo not shown) [Example 157, 2-(2-Bromosulfanyl)-5-guanidino-pentanoic acid hydroxyamide]
inhibition at 0.2 µM (MMP 13): 19%

CCCCCCCCC(C(=O)NO)S(=O)(=O)c1cccc(OC)c1 (stereo not shown) [Example 142, 2-(3-Methoxy-benzenesulfonyl)decanoic acid hydroxamide]
inhibition at 0.2 µM (MMP 13): 69%

CCCCCCC(Sc1nc2ccccc2o1)C(=O)NO (stereo not shown) [Example 169, 2-(2-Benzooxazol-2-ylsulfanyl)-octanoic acid hydroxyamide]
inhibition at 0.036 µM (MMP 13): 28%

COC(=O)CCC(Sc1ccc(SC)cc1)C(=O)NO (stereo not shown) [Example 131, 4-Hydroxycarbamoyl-4-(4-methanesulfanyl-phenylsulfanyl)-butyric acid methyl ester]
inhibition at 0.2 µM (MMP 13): 71%

(1-Hydroxycarbamoyl-propane-1-sulfinyl)-propionic acid hydroxyamide [Example 123]
MMP 13 % inhibition at 0.2 µM (HTS) (MMP 13): 0%

CCCCCCCCC(Sc1cccc(OC)c1)C(=O)NO (stereo not shown) [Example 140, 2-(3-methoxy-benzenesulfanyl)decanoic acid hydroxamide]
inhibition at 0.2 µM (MMP 13): 29%

O=C(NO)C(Cc1cnc[nH]1)Sc1ccccc1Br (stereo not shown) [Example 152, 2-(2-bromo-benzenesulfanyl)-N-hydroxy-3-(3H-imidazol-4-yl)-propionamide]
inhibition at 0.2 µM (MMP 13): 9%

CCCCCCC(C(=O)NO)[S+]([O-])c1nc2ccccc2[nH]1 (stereo not shown) [Example 177, 2-(2-Benzimidazol-2-ylsulfinyl)-octanoic acid hydroxyamide]
inhibition at 0.036 µM (MMP 13): 5%

O=C(CCC(C(=O)NO)S(=O)(=O)c1ccccc1C(F)(F)F)NO (stereo not shown) [Example 139, 4-Hydroxycarbamoyl-4-(2-trifluoromethyl-benzenesulfonyl)-butyric acid hydroxyamide]
inhibition at 0.2 µM (MMP 13): 8%
